Measurements published in PubChem BioAssay AID248 (DTP/NCI, 2004).
Toxic doses and inconclusive results are not listed. No stated cut-off is given here; in the data, active means T/C of 150% or more; inactive means T/C below 125%.

Test system: L1210 leukemia ip in BDF1 mice, survival T/C
Assay: NCI In Vivo Anticancer Drug Screen. Data for tumor model L1210 Leukemia (intraperitoneal) in B6D2F1 (BDF1) mice
Conditions: endpoint: mean survival time, higher = longer survival
Outline: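 Value reflects the ratio of survival in compound-treated mice to survival in vehicle-treated controls, with both groups carrying the same transplanted tumor.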

[1] = dose: 100.0 mg/kg/injection, schedule: Q04DX003 (ip), vehicle: Klucel (hydroxypropylcellulose) (HPC)
[2] = dose: 200.0 mg/kg/injection, schedule: Q04DX003 (ip), vehicle: Klucel (hydroxypropylcellulose) (HPC)
[3] = dose: 400.0 mg/kg/injection, schedule: Q04DX003 (ip), vehicle: Klucel (hydroxypropylcellulose) (HPC)
[4] = dose: 100.0 mg/kg/injection, schedule: Q01DX009 (ip), vehicle: saline sonified
[5] = dose: 100.0 mg/kg/injection, schedule: Q04DX003 (ip), vehicle: saline with Tween-80
[6] = dose: 200.0 mg/kg/injection, schedule: Q01DX009 (ip), vehicle: saline sonified
[7] = dose: 200.0 mg/kg/injection, schedule: Q04DX003 (ip), vehicle: saline with Tween-80
[8] = dose: 400.0 mg/kg/injection, schedule: Q01DX009 (ip), vehicle: saline sonified
[9] = dose: 400.0 mg/kg/injection, schedule: Q04DX003 (ip), vehicle: saline with Tween-80
[10] = dose: 50.0 mg/kg/injection, schedule: Q01DX009 (ip), vehicle: Klucel (hydroxypropylcellulose) (HPC)
[11] = dose: 100.0 mg/kg/injection, schedule: Q01DX009 (ip), vehicle: Klucel (hydroxypropylcellulose) (HPC)
[12] = dose: 200.0 mg/kg/injection, schedule: Q01DX009 (ip), vehicle: Klucel (hydroxypropylcellulose) (HPC)
[13] = dose: 400.0 mg/kg/injection, schedule: Q01DX009 (ip), vehicle: Klucel (hydroxypropylcellulose) (HPC)
[14] = dose: 25.0 mg/kg/injection, schedule: Q01DX009 (ip), vehicle: saline
[15] = dose: 25.0 mg/kg/injection, schedule: Q04DX003 (ip), vehicle: saline
[16] = dose: 50.0 mg/kg/injection, schedule: Q04DX003 (ip), vehicle: saline
[17] = dose: 100.0 mg/kg/injection, schedule: Q04DX003 (ip), vehicle: saline
[18] = dose: 50.0 mg/kg/injection, schedule: Q01DX009 (ip), vehicle: saline
[19] = dose: 100.0 mg/kg/injection, schedule: Q01DX009 (ip), vehicle: saline
[20] = dose: 200.0 mg/kg/injection, schedule: Q01DX009 (ip), vehicle: saline
[21] = dose: 200.0 mg/kg/injection, schedule: Q04DX003 (ip), vehicle: saline
[22] = dose: 400.0 mg/kg/injection, schedule: Q04DX003 (ip), vehicle: saline
[23] = dose: 75.0 mg/kg/injection, schedule: Q01DX001 (ip), vehicle: other
[24] = dose: 150.0 mg/kg/injection, schedule: Q01DX001 (ip), vehicle: other
[25] = dose: 300.0 mg/kg/injection, schedule: Q01DX001 (ip), vehicle: other
[26] = dose: 50.0 mg/kg/injection, schedule: Q04DX003 (ip), vehicle: Klucel (hydroxypropylcellulose) (HPC)
[27] = dose: 100.0 mg/kg/injection, schedule: Q04DX002 (ip), vehicle: Klucel (hydroxypropylcellulose) (HPC)
[28] = dose: 200.0 mg/kg/injection, schedule: Q04DX002 (ip), vehicle: Klucel (hydroxypropylcellulose) (HPC)
[29] = dose: 100.0 mg/kg/injection, schedule: Q01DX001 (ip), vehicle: saline
[30] = dose: 200.0 mg/kg/injection, schedule: Q01DX001 (ip), vehicle: saline
[31] = dose: 400.0 mg/kg/injection, schedule: Q01DX001 (ip), vehicle: saline

Measured: T/C

NC(CSCCc1ccc2ccccc2n1)C(=O)O (stereo not drawn)
inactive: [1] 100 % of control | [2] 95 % of control | [3] 99 % of control

O=[N+]([O-])c1ccc(/C=C\c2ccc(Cl)cc2S(=O)(=O)F)c(Cl)c1
inactive: [4] 97 % of control | [5] 102 % of control | [6] 97 % of control | [7] 96 % of control | [8] 96 % of control | [9] 100 % of control

O=C(O)C1CCCN(C(=O)OCc2ccccc2)C1 (stereo not drawn)
inactive: [10] 97 % of control | [11] 100 % of control | [1] 90 % of control | [12] 97 % of control | [2] 90 % of control | [3] 97 % of control

c1cc[c]([Ge]([c]2ccccc2)([c]2ccccc2)[c]2cc[c]([Ge]([c]3ccccc3)([c]3ccccc3)[c]3ccccc3)cc2)cc1
inactive: dose: 100.0 mg/kg/injection, schedule: Q04DX002 (ip), vehicle: saline with Tween-80 97 % of control | dose: 200.0 mg/kg/injection, schedule: Q04DX002 (ip), vehicle: saline with Tween-80 87 % of control | dose: 400.0 mg/kg/injection, schedule: Q04DX002 (ip), vehicle: saline with Tween-80 91 % of control

CCC/C(=C\C(=O)O)CC
inactive: [11] 94 % of control | [1] 93 % of control | [12] 96 % of control | [2] 90 % of control | [13] 96 % of control | [3] 98 % of control

O=C(OC(c1ccccc1)c1ccccc1)C(=O)c1ccccc1
inactive: [5] 92 % of control | [7] 89 % of control | [9] 92 % of control

c1ccc([P+](Cc2nc3ccccc3[nH]2)(c2ccccc2)c2ccccc2)cc1
inactive: [14] 92 % of control | [15] 97 % of control | [10] 102 % of control | [16] 92 % of control | [11] 100 % of control | [17] 94 % of control

Cc1ccc(NC(=O)c2ccc([N+](=O)[O-])cc2)cc1Cl
inactive: dose: 25.0 mg/kg/injection, schedule: Q01DX009 (ip), vehicle: Klucel (hydroxypropylcellulose) (HPC) 95 % of control | [10] 103 % of control | dose: 100.0 mg/kg/injection, schedule: Q01DX001 (ip), vehicle: Klucel (hydroxypropylcellulose) (HPC) 95 % of control | [11] 103 % of control | [1] 93 % of control | dose: 200.0 mg/kg/injection, schedule: Q01DX001 (ip), vehicle: Klucel (hydroxypropylcellulose) (HPC) 106 % of control | [2] 95 % of control | dose: 400.0 mg/kg/injection, schedule: Q01DX001 (ip), vehicle: Klucel (hydroxypropylcellulose) (HPC) 98 % of control | [3] 98 % of control

NNc1ccnc2c1cnn2C1OC(CO)C(O)C1O (stereo not drawn)
inactive: dose: 50.0 mg/kg/injection, schedule: Q01DX005 (ip), vehicle: other 105 % of control

CCOC(=O)C1CCC1C(=O)OCC (stereo not drawn)
inactive: [18] 95 % of control | [19] 95 % of control | [17] 96 % of control | [20] 94 % of control | [21] 102 % of control | [22] 102 % of control

CN(C)CCc1ccccc1OC1CCCC1
inactive: [23] 101 % of control | [24] 102 % of control | [25] 101 % of control

O=C(COc1cc2ccccc2cc1C(=O)O)NCc1ccc(Cl)cc1
inactive: [15] 96 % of control | [16] 100 % of control | [17] 101 % of control | [21] 101 % of control

CCOc1ccc(NC(=O)OC/C=C/c2ccccc2)cc1
inactive: dose: 50.0 mg/kg/injection, schedule: Q01DX009 (ip), vehicle: saline with Tween-80 96 % of control | dose: 100.0 mg/kg/injection, schedule: Q01DX009 (ip), vehicle: saline with Tween-80 93 % of control | dose: 200.0 mg/kg/injection, schedule: Q01DX009 (ip), vehicle: saline with Tween-80 90 % of control

CCOC(=O)CN1CCC(C2(c3cc4ccccc4[nH]3)OCCO2)CC1
inactive: dose: 12.0 mg/kg/injection, schedule: Q04DX003 (ip), vehicle: Klucel (hydroxypropylcellulose) (HPC) 91 % of control | dose: 25.0 mg/kg/injection, schedule: Q04DX003 (ip), vehicle: Klucel (hydroxypropylcellulose) (HPC) 89 % of control | [26] 100 % of control | [11] 97 % of control | [12] 103 % of control | [13] 101 % of control

CC(=O)N(c1ccccc1)c1ccccc1
inactive: [11] 95 % of control | [27] 91 % of control | [12] 95 % of control | [28] 98 % of control | [13] 95 % of control | dose: 400.0 mg/kg/injection, schedule: Q04DX002 (ip), vehicle: Klucel (hydroxypropylcellulose) (HPC) 112 % of control

O=C(NCCO)Nc1cccc2ccccc12
inactive: [29] 95 % of control | [30] 95 % of control | [31] 90 % of control

CN(C)N=Nc1ccc(C(=O)N/N=C/c2ccc(Cl)cc2)cc1
inactive: [26] 99 % of control | [1] 97 % of control | [2] 103 % of control

COC(=O)c1cc(C)c(C(=O)OC)cc1C
inactive: [4] 97 % of control | [6] 91 % of control | [8] 88 % of control

CC(=O)N1CCCC2CCc3c([nH]c4ccccc34)C21 (stereo not drawn)
inactive: [23] 110 % of control | [24] 119 % of control | [25] 110 % of control

CCCCCCCc1nc(N)c(C(N)=O)[nH]1
inactive: dose: 25.0 mg/kg/injection, schedule: Q04DX003 (ip), vehicle: saline with Tween-80 96 % of control | dose: 50.0 mg/kg/injection, schedule: Q04DX003 (ip), vehicle: saline with Tween-80 102 % of control | dose: 100.0 mg/kg/injection, schedule: Q01DX001 (ip), vehicle: saline with Tween-80 98 % of control | [5] 101 % of control

O=S(Cc1ccccc1)Cc1ccccc1
inactive: dose: 50.0 mg/kg/injection, schedule: Q01DX001 (ip), vehicle: saline 110 % of control | [29] 110 % of control | [11] 103 % of control | [1] 90 % of control | [30] 103 % of control | [12] 100 % of control | [2] 97 % of control | [31] 100 % of control | [13] 102 % of control | [3] 100 % of control

O=C(O)COc1nc(Cl)c(Cl)cc1Cl
inactive: [27] 107 % of control | [28] 104 % of control

O=C(CBr)CC(O)(C(F)(F)F)C(F)(F)F
inactive: dose: 3.0 mg/kg/injection, schedule: Q01DX009 (ip), vehicle: saline 93 % of control | dose: 6.0 mg/kg/injection, schedule: Q01DX009 (ip), vehicle: saline 103 % of control | dose: 12.0 mg/kg/injection, schedule: Q01DX009 (ip), vehicle: saline 103 % of control

COC(=O)C(N)CSC (stereo not drawn)
inactive: [19] 101 % of control | [17] 101 % of control | [20] 98 % of control | [21] 97 % of control | dose: 400.0 mg/kg/injection, schedule: Q01DX009 (ip), vehicle: saline 95 % of control | [22] 101 % of control

Clc1ccc(/C=N/Nc2nc3ccccc3s2)cc1
inactive: dose: 222.0 mg/kg/injection, schedule: Q01DX Z (ip), vehicle: methylcellulose (MC) 97 % of control | dose: 333.0 mg/kg/injection, schedule: Q01DX Z (ip), vehicle: methylcellulose (MC) 101 % of control | dose: 500.0 mg/kg/injection, schedule: Q01DX Z (ip), vehicle: methylcellulose (MC) 91 % of control

CC(=O)NC(CSC(c1ccccc1)(c1ccccc1)c1ccccc1)C(=O)O (stereo not drawn)
inactive: [14] 102 % of control | [18] 96 % of control
